Source: patent US20240043435A1, “TYK-2 INHIBITOR” (BEIGENE, LTD., priority 2020, published 2024)

Legend:
pSTAT5/GM-CSF = pSTAT5/GM-CSF cellular assay (JAK2 selectivity); format: cell-based; conditions: for Selectivity fold (TYK2/JAK2): pSTAT5/GM-CSF IC50 over pSTAT4/IL-12 IC50
[1] = molecular target: T1, TYK2-JH2 (aa 575-869, in-house) protein (Homo sapiens, UniProt P29597); assay: TYK2-JH2 biochemical assay (HTRF probe displacement); format: binding; conditions: Biochemical assay; read-out: TYK2-JH2 IC50
T1 construct: TYK2-JH2 (aa 575-869, in-house) protein; made in house
Method in brief: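 HTRF probe-displacement format: compound dilutions (10 points, 5-fold, from 500 uM in DMSO at 500×) were combined with 0.2 nM TYK2-JH2 protein for 0.5 h at room temperature in HEPES pH 7.5 buffer with MgCl2, BSA, DTT and Brij-35. Percent inhibition came from the 615/665 nm fluorescence ratio, fitted to a four-parameter logistic for IC50.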

[2] = system: JAK2, TYK2/p-STAT4 (Tyr693) activated by IL-12 in NK-92 cell line; assay: IL-12-JAK2, TYK2/p-STAT4 (Tyr693) inhibition IC50 cellular assay; format: cell-based; conditions: for Selectivity fold (TYK2/JAK2): Cellular assay, pSTAT5/GM-CSF IC50 vs pSTAT4/IL-12 IC50; for IC50: NK92, Cellular assay, read-out: pSTAT4/IL-12 IC50
Method in brief: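 p-STAT4 (Tyr693) in lysates was measured by AlphaLISA SureFire Ultra after a 30 min IL-12 challenge (40 ng/ml final) at 37° C. Overnight-starved, IL-2-free NK-92 cells had been pretreated 1 h with compound at 10000 to 0.61 nM (4-fold, 8 points). IC50 values came from four-parameter logistic fitting.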

T1 sequence (P29597 575-869): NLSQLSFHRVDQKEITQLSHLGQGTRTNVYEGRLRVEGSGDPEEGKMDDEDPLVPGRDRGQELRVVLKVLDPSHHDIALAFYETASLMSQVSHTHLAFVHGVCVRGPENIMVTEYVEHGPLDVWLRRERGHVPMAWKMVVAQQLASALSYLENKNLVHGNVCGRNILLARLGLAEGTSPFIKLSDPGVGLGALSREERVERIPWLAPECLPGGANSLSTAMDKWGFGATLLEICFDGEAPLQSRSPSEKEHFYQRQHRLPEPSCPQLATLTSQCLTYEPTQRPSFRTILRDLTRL

## CC(=O)Nc1cc(Nc2cc(C)cc(S(C)(=O)=O)n2)c(-c2ccc(C(F)(F)F)cn2)cn1 [Example F1, N-(4′-((4-methyl-6-(methylsulfonyl)pyridin-2-yl)amino)-5-(trifluoromethyl)-[2,3′-bipyridin]-6′-yl)acetamide]
pSTAT5/GM-CSF
  IC50: > 10000 nM
[1]
  IC50: 0.046 nM
[2]
  Selectivity fold (TYK2/JAK2): >8130 fold
  IC50: 1.23 nM

## COCCOc1ccc(-c2cnc(NC(C)=O)cc2Nc2cccc(S(C)(=O)=O)n2)nc1 [Example D1, N-(5-(2-methoxyethoxy)-4′-((6-(methylsulfonyl)pyridin-2-yl)amino)-[2,3′-bipyridin]-6′-yl)acetamide]
pSTAT5/GM-CSF
  IC50: > 10000 nM
[1]
  IC50: 0.047 nM
[2]
  Selectivity fold (TYK2/JAK2): >39840 fold
  IC50: 0.251 nM

## COCCn1ccc(-c2cnc(NC(C)=O)cc2Nc2cc(C)cc(S(C)(=O)=O)n2)n1 [Example A15, N-(5-(1-(2-methoxyethyl)-1H-pyrazol-3-yl)-4-((4-methyl-6-(methylsulfonyl)pyridin-2-yl)amino)pyridin-2-yl)acetamide]
pSTAT5/GM-CSF
  IC50: 3460 nM
[1]
  IC50: 0.04 nM
[2]
  Selectivity fold (TYK2/JAK2): 5039 fold
  IC50: 0.687 nM

## COCc1cc(Nc2cc(NC(C)=O)ncc2-c2ccn(C)n2)cc(S(C)(=O)=O)c1 [Example J34, N-(4-((3-(methoxymethyl)-5-(methylsulfonyl)phenyl)amino)-5-(1-methyl-1H-pyrazol-3-yl)pyridin-2-yl)acetamide]
pSTAT5/GM-CSF
  IC50: > 10000 nM
  Selectivity fold (TYK2/JAK2): >1031 fold
[1]
  IC50: 0.067 nM
[2]
  IC50: 9.69 nM

## CC(=O)Nc1cc(Nc2cc(OC(C)C)cc(S(C)(=O)=O)n2)c(-c2ccn(C(C)C)n2)cn1 [Example M23, N-(4-((4-isopropoxy-6-(methylsulfonyl)pyridin-2-yl)amino)-5-(1-isopropyl-1H-pyrazol-3-yl)pyridin-2-yl)acetamide]
pSTAT5/GM-CSF
  IC50: 3750 nM
  Selectivity fold (TYK2/JAK2): 3471 fold
[1]
  IC50: 0.031 nM
[2]
  IC50: 1.08 nM

## CC(=O)Nc1cc(Nc2cc(C(F)(F)F)cc(S(C)(=O)=O)n2)c(-c2ccn(C)n2)cn1 [Example J52, N-(5-(1-methyl-1H-pyrazol-3-yl)-4-((6-(methylsulfonyl)-4-(trifluoromethyl)pyridin-2-yl)amino)pyridin-2-yl)acetamide]
pSTAT5/GM-CSF
  IC50: > 10000 nM
  Selectivity fold (TYK2/JAK2): >699 fold
[1]
  IC50: 0.021 nM
[2]
  IC50: 1.43 nM

## COc1cc(Nc2cc(NC(C)=O)ncc2-c2ccc(N3C[C@@H](C)O[C@@H](C)C3)cn2)nc(S(C)(=O)=O)c1 [Example C9, N-(5-(cis-2,6-dimethylmorpholino)-4′-((4-methoxy-6-(methylsulfonyl)pyridin-2-yl)amino)-[2,3′-bipyridin]-6′-yl)acetamide]
pSTAT5/GM-CSF
  IC50: > 10000 nM
[1]
  IC50: 0.027 nM
[2]
  Selectivity fold (TYK2/JAK2): >14880 fold
  IC50: 0.672 nM

## CC(=O)Nc1cc(Nc2cc(OC3COC3)cc(S(C)(=O)=O)n2)c(-c2ccc(C(C)(C)O)cn2)cn1 [Example H27, N-(5-(2-hydroxypropan-2-yl)-4′-((6-(methylsulfonyl)-4-(oxetan-3-yloxy)pyridin-2-yl)amino)-[2,3′-bipyridin]-6′-yl)acetamide]
pSTAT5/GM-CSF
  IC50: > 10000 nM
[1]
  IC50: 0.031 nM
[2]
  Selectivity fold (TYK2/JAK2): >3676 fold
  IC50: 2.72 nM

## CC(=O)Nc1cc(Nc2cc(C)cc(S(C)(=O)=O)c2)c(-c2ccn(C)n2)cn1 [Example J8, N-(5-(1-methyl-1H-pyrazol-3-yl)-4-((3-methyl-5-(methylsulfonyl)phenyl)amino)pyridin-2-yl)acetamide]
pSTAT5/GM-CSF
  IC50: > 10000 nM
  Selectivity fold (TYK2/JAK2): >1303 fold
[1]
  IC50: 0.073 nM
[2]
  IC50: 7.67 nM

## COCc1ccc(-c2cnc(NC(C)=O)cc2Nc2cccc(S(C)(=O)=O)c2)nc1 [Example E1, N-(5-(methoxymethyl)-4′-((3-(methylsulfonyl)phenyl)amino)-[2,3′-bipyridin]-6′-yl)acetamide]
pSTAT5/GM-CSF
  IC50: > 10000 nM
[1]
  IC50: 0.022 nM
[2]
  Selectivity fold (TYK2/JAK2): >2197 fold
  IC50: 4.55 nM

## CCn1ccc(-c2cnc(NC(C)=O)cc2Nc2cc(COC)cc(S(C)(=O)=O)c2)n1 [Example M12, N-(5-(1-ethyl-1H-pyrazol-3-yl)-4-((3-(methoxymethyl)-5-(methylsulfonyl)phenyl)amino)pyridin-2-yl)acetamide]
pSTAT5/GM-CSF
  IC50: > 10000 nM
  Selectivity fold (TYK2/JAK2): >1096 fold
[1]
  IC50: 0.03 nM
[2]
  IC50: 9.12 nM

## CC(=O)Nc1cc(Nc2cccc(S(C)(=O)=O)n2)c(-c2cccnn2)cn1 [Example A24, N-(4-((6-(methylsulfonyl)pyridin-2-yl)amino)-5-(pyridazin-3-yl)pyridin-2-yl)acetamide]
pSTAT5/GM-CSF
  IC50: > 10000 nM
[1]
  IC50: 0.027 nM
[2]
  Selectivity fold (TYK2/JAK2): >5405 fold
  IC50: 1.85 nM

## CC(=O)Nc1cc(Nc2cc(C)cc(S(C)(=O)=O)n2)c(-c2cc3c(cn2)OCCO3)cn1 [Example Q18, N-(5-(2,3-dihydro-[1,4]dioxino[2,3-c]pyridin-7-yl)-4-((4-methyl-6-(methylsulfonyl)pyridin-2-yl)amino)pyridin-2-yl)acetamide]
pSTAT5/GM-CSF
  IC50: > 10000 nM
  Selectivity fold (TYK2/JAK2): >10989 fold
[1]
  IC50: 0.023 nM
[2]
  IC50: 0.91 nM

## CC(=O)Nc1cc(Nc2cccc(S(=O)(=O)C3CC3)n2)c(-c2ccn(C)n2)cn1 [Example J28, N-(4-((6-(cyclopropylsulfonyl)py-ridin-2-yl)amino)-5-(1-methyl-1H-pyrazol-3-yl)pyridin-2-yl)acetamide]
pSTAT5/GM-CSF
  IC50: > 10000 nM
  Selectivity fold (TYK2/JAK2): >3184 fold
[1]
  IC50: 0.053 nM
[2]
  IC50: 3.14 nM

## COc1ccc(S(C)(=O)=O)nc1Nc1cc(NC(C)=O)ncc1-c1ccn(C)n1 [Example J23, N-(4-((3-methoxy-6-(methylsulfonyl)pyridin-2-yl)amino)-5-(1-methyl-1H-pyrazol-3-yl)pyridin-2-yl)acetamide]
pSTAT5/GM-CSF
  IC50: 1350 nM
  Selectivity fold (TYK2/JAK2): 1570 fold
[1]
  IC50: 0.044 nM
[2]
  IC50: 0.862 nM

## CC(=O)Nc1cc(Nc2cccc(S(C)(=O)=O)n2)c(-c2cc(Cl)c(C(C)(C)O)cn2)cn1 [Example B17, N-(4-chloro-5-(2-hydroxypropan-2-yl)-4′-((6-(methylsulfonyl)pyridin-2-yl)amino)-[2,3′-bipyridin]-6′-yl)acetamide]
pSTAT5/GM-CSF
  IC50: > 10000 nM
[1]
  IC50: 0.035 nM
[2]
  Selectivity fold (TYK2/JAK2): >4878 fold
  IC50: 2.05 nM

## COc1cc(Nc2cc(NC(C)=O)ncc2-c2ccn(C)n2)cc(S(C)(=O)=O)c1 [Example J9, N-(4-((3-methoxy-5-(methylsulfonyl)phenyl)amino)-5-(1-methyl-1H-pyrazol-3-yl)pyridin-2-yl)acetamide]
pSTAT5/GM-CSF
  IC50: > 10000 nM
  Selectivity fold (TYK2/JAK2): >1529 fold
[1]
  IC50: 0.083 nM
[2]
  IC50: 6.54 nM

## COc1cc(Nc2cc(NC(C)=O)ncc2-c2ccn([C@@H]3CCOC3)n2)nc(S(C)(=O)=O)c1 [Example M35, (R)-N-(4-((4-methoxy-6-(methylsulfonyl)pyridin-2-yl)amino)-5-(1-(tetrahydrofuran-3-yl)-1H-pyrazol-3-yl)pyridin-2-yl)acetamide]
pSTAT5/GM-CSF
  IC50: > 10000 nM
  Selectivity fold (TYK2/JAK2): >199 fold
[1]
  IC50: 0.036 nM
[2]
  IC50: 50.2 nM

## CC(=O)Nc1cc(Nc2cc(OC[C@H](C)O)cc(S(C)(=O)=O)c2)c(-c2ccn(C)n2)cn1 [Example J55, (S)-N-(4-((3-(2-hydroxypropoxy)-5-(methylsulfonyl)phenyl)amino)-5-(1-methyl-1H-pyrazol-3-yl)pyridin-2-yl)acetamide]
pSTAT5/GM-CSF
  IC50: > 10000 nM
  Selectivity fold (TYK2/JAK2): >878 fold
[1]
  IC50: 0.033 nM
[2]
  IC50: 11.4 nM

## CCn1ccc(-c2cnc(NC(C)=O)cc2Nc2cccc(S(C)(=O)=O)n2)n1 [Example M5, N-(5-(1-ethyl-1H-pyrazol-3-yl)-4-((6-(methylsulfonyl)pyridin-2-yl)amino)pyridin-2-yl)acetamide]
pSTAT5/GM-CSF
  IC50: 1550 nM
  Selectivity fold (TYK2/JAK2): 8206 fold
[1]
  IC50: 0.032 nM
[2]
  IC50: 0.189 nM

## CC(=O)Nc1cc(Nc2cc(N3CCOC[C@@H]3C)cc(S(C)(=O)=O)n2)c(-c2ccc3c(n2)OCC(C)(C)O3)cn1 [Example Q35, (S)—N-(5-(2,2-dimethyl-2,3-dihydro-[1,4]dioxino[2,3-b]pyridin-6-yl)-4-((4-(3-methyl-morpholino)-6-(methylsulfonyl)pyridin-2-yl)amino)-pyridin-2-yl)acetamide]
pSTAT5/GM-CSF
  IC50: 1810 nM
  Selectivity fold (TYK2/JAK2): 2665 fold
[1]
  IC50: 0.02 nM
[2]
  IC50: 0.679 nM

## COc1ccc(-c2cnc(NC(C)=O)cc2Nc2cc(N3C[C@@H](C)O[C@@H](C)C3)cc(S(C)(=O)=O)n2)nn1 [Example A27, N-(4-((4-((2S,6R)-2,6-dimethylmorpholino)-6-(methylsulfonyl)pyridin-2-yl)amino)-5-(6-methoxypyridazin-3-yl)pyridin-2-yl)acetamide]
pSTAT5/GM-CSF
  IC50: > 10000 nM
[1]
  IC50: 0.034 nM
[2]
  Selectivity fold (TYK2/JAK2): >4761 fold
  IC50: 2.1 nM

## COCCOc1cc(Nc2cc(NC(C)=O)ncc2-c2ccc(C(C)(C)O)cn2)cc(S(C)(=O)=O)c1 [Example H15, N-(5-(2-hydroxypropan-2-yl)-4′-((3-(2-methoxyethoxy)-5-(methylsulfonyl)phenyl)amino)-[2,3′-bipyridin]-6′-yl)acetamide]
pSTAT5/GM-CSF
  IC50: > 10000 nM
[1]
  IC50: 0.029 nM
[2]
  Selectivity fold (TYK2/JAK2): >2044 fold
  IC50: 4.89 nM
